In ChEMBL document CHEMBL1150465, “DNA topoisomerase II inhibition by substituted 1,2,3,4-tetrahydro--carboline derivatives” (Bioorg Med Chem Lett, 1994):
Blank lines part the entries; values can stand above or below the compound they belong to. Activity calls are given as the source filed them. The calls are words filed in the database; no cut-off is given here.

Assays:
[1] = target: T1, DNA topoisomerase II (Homo sapiens) (UniProt P11388+Q02880); assay: Compound was tested for DNA Topoisomerase II mediated cleavage of DNA; Each + indicates 2 to 4 fold increase; type: protein assay
[2] = test system: Nucleic Acid; assay: DNA intercalating activity was determined; Each (+) indicates 1 to 2 -fold increase; type: functional
[3] = target: T1, DNA topoisomerase II (Homo sapiens); assay: Compound was tested for DNA Topoisomerase II mediated cleavage of DNA; Each (+) indicates 1 to 2 -fold increase; type: protein assay
[4] = test system: Nucleic Acid; assay: DNA intercalating activity was determined; Each + indicates a 2 to 4 fold increase; type: functional
[5] = target: T1, DNA topoisomerase II (Homo sapiens); assay: Compound was tested for DNA Topoisomerase II mediated cleavage of DNA; inactive; type: protein assay
[6] = target: T1, DNA topoisomerase II (Homo sapiens); assay: Compound was tested for DNA Topoisomerase II mediated cleavage of DNA; No increase; type: protein assay

Activity [1]: denotes 2 to 4 fold increase
Structure (SMILES): COC(=O)N1CCc2c([nH]c3ccccc23)C1c1cc(OC)c(O)c(OC)c1 (stereo in doubt; 5)
Activity [2]: (+)

Activity [3]: +
Structure (SMILES): COC(=O)N1CCc2c([nH]c3ccccc23)C1c1ccc(NS(C)(=O)=O)c(OC)c1 (configuration not stated)

Activity [1]: ++(+)
Structure (SMILES): COC(=O)N1CCc2c([nH]c3ccccc23)C1c1cc(OC)c(O)c(OC)c1 (stereo in doubt; 4)
Activity [4]: denotes 2 to 4 fold increase

Activity [5]: inactive
Structure (SMILES): COC(=O)N1CCc2c([nH]c3ccccc23)C1c1ccc(O)cc1 (configuration not stated)

Activity [3]: +
Structure (SMILES): COC(=O)N1CCc2c([nH]c3ccccc23)C1c1ccc(N)c(OC)c1 (configuration not stated)

Activity [1]: ++
Structure (SMILES): COc1cc([C@@H]2c3cc4c(cc3[C@@H](O[C@@H]3O[C@@H]5CO[C@@H](C)O[C@H]5[C@H](O)[C@H]3O)[C@H]3COC(=O)[C@H]23)OCO4)cc(OC)c1O
Activity [2]: (+)

Structure (SMILES): COc1cc(C2C3Nc4ccccc4C3CC3CCC(=O)N32)cc(OC)c1O (configuration not stated)
Activity [1]: ++

Activity [6]: No increase
Structure (SMILES): COC(=O)N1CCc2cc3c(cc2C1c1cc(OC)c(O)c(OC)c1)OCO3 (configuration not stated)

Activity [5]: inactive
Structure (SMILES): COC(=O)N1CCc2c([nH]c3ccccc23)C1c1cc(OC)c(OC)c(OC)c1 (configuration not stated)
